Measured values published in ChEMBL document CHEMBL1201862, “PubChem BioAssay data set” (2004).
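All cell lines were grown in 96-well plates and treated with compound for 48 hours. GI50 is the concentration that inhibits growth by half.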 Activity calls are given as the source filed them. No stated cut-off is given here; in the data, active = GI50 up to about 1.1 µM and inactive = higher.

Assays:
Assay in all cases: NCI tumour cell line growth inhibition, 48 h
[1] = system: HT-29
[2] = system: EKVX
[3] = system: U-251
[4] = system: HCT-15
[5] = system: SF-268
[6] = system: MOLT-4
[7] = system: A549
[8] = system: SK-MEL-28
[9] = system: SNB-19
[10] = system: SK-MEL-5
[11] = system: SNB-75
[12] = system: NCI-H226
[13] = system: UACC-257
[14] = system: HOP-92
[15] = system: OVCAR-5
[16] = system: HCC 2998

CC1=CC(=O)NCCN1C
GI50 [1]: > 100 µM (inactive)
GI50 [2]: > 100 µM (inactive)
GI50 [3]: > 100 µM (inactive)
GI50 [4]: > 100 µM
GI50 [5]: > 100 µM (inactive)
GI50 [6]: > 100 µM (inactive)
GI50 [7]: > 100 µM (inactive)
GI50 [8]: > 100 µM (inactive)
GI50 [9]: > 100 µM (inactive)
GI50 [10]: > 100 µM (inactive)
GI50 [11]: > 100 µM (inactive)
GI50 [12]: > 100 µM (inactive)
GI50 [13]: > 100 µM (inactive)
GI50 [14]: > 100 µM (inactive)
GI50 [15]: > 100 µM (inactive)
GI50 [16]: > 100 µM (inactive)

CCOc1ccccc1NC(=O)C(=O)CC(=O)C1=C(C)Nc2ccccc2S1
GI50 [1]: > 100 µM (inactive)
GI50 [2]: > 100 µM (inactive)
GI50 [3]: > 100 µM (inactive)
GI50 [4]: > 100 µM
GI50 [5]: > 100 µM (inactive)
GI50 [6]: > 49.7 µM (inactive)
GI50 [7]: > 100 µM (inactive)
GI50 [8]: > 100 µM (inactive)
GI50 [9]: > 100 µM (inactive)
GI50 [10]: > 100 µM (inactive)
GI50 [11]: > 100 µM (inactive)
GI50 [12]: > 100 µM (inactive)
GI50 [13]: > 100 µM (inactive)
GI50 [14]: > 100 µM (inactive)
GI50 [15]: > 100 µM (inactive)
GI50 [16]: > 100 µM (inactive)

C=C(Br)N(CC)CC
GI50 [1]: > 100 µM (inactive)
GI50 [2]: > 100 µM (inactive)
GI50 [3]: > 100 µM (inactive)
GI50 [4]: > 100 µM
GI50 [5]: > 100 µM (inactive)
GI50 [6]: > 100 µM (inactive)
GI50 [7]: > 100 µM (inactive)
GI50 [8]: > 100 µM (inactive)
GI50 [9]: > 100 µM (inactive)
GI50 [10]: > 100 µM (inactive)
GI50 [11]: > 100 µM (inactive)
GI50 [12]: > 100 µM (inactive)
GI50 [13]: > 100 µM (inactive)
GI50 [14]: > 100 µM (inactive)
GI50 [15]: > 100 µM (inactive)
GI50 [16]: > 100 µM (inactive)

CC/C=C\C/C=C\C/C=C\CCCCCCCC(=O)OCC(O)CO (configuration not stated)
GI50 [1]: > 68.5 µM (inactive)
GI50 [2]: > 88.7 µM (inactive)
GI50 [3]: > 57.8 µM (inactive)
GI50 [4]: > 63.4 µM
GI50 [5]: > 90.8 µM (inactive)
GI50 [6]: > 46.2 µM (inactive)
GI50 [7]: > 84.9 µM (inactive)
GI50 [8]: > 100 µM (inactive)
GI50 [9]: > 100 µM (inactive)
GI50 [10]: > 59.2 µM (inactive)
GI50 [11]: > 100 µM (inactive)
GI50 [12]: > 100 µM (inactive)
GI50 [13]: > 86.1 µM (inactive)
GI50 [14]: > 68.1 µM (inactive)
GI50 [15]: > 100 µM (inactive)
GI50 [16]: > 100 µM (inactive)

CN1CCN=C1c1nnn(-c2ccc([N+](=O)[O-])cc2)c1-c1ccccc1
GI50 [1]: 64.9 µM (inactive)
GI50 [2]: > 100 µM (inactive)
GI50 [3]: 94.6 µM (inactive)
GI50 [4]: > 100 µM
GI50 [5]: > 100 µM (inactive)
GI50 [6]: > 100 µM (inactive)
GI50 [7]: > 100 µM (inactive)
GI50 [8]: > 100 µM (inactive)
GI50 [9]: > 100 µM (inactive)
GI50 [10]: > 100 µM (inactive)
GI50 [11]: > 100 µM (inactive)
GI50 [12]: > 100 µM (inactive)
GI50 [13]: > 100 µM (inactive)
GI50 [14]: 13.6 µM (inactive)
GI50 [15]: > 100 µM (inactive)
GI50 [16]: > 100 µM (inactive)

COc1cc2cnc3c4cc(OCc5ccccc5)ccc4ccc3c2cc1OC
GI50 [1]: 25.1 µM (inactive)
GI50 [2]: 58.3 µM (inactive)
GI50 [3]: 24.3 µM (inactive)
GI50 [4]: 70.1 µM
GI50 [5]: 19.4 µM (inactive)
GI50 [6]: 5.06 µM (inactive)
GI50 [7]: 25.5 µM (inactive)
GI50 [8]: 38.3 µM (inactive)
GI50 [9]: 34.8 µM (inactive)
GI50 [10]: 17.4 µM (inactive)
GI50 [11]: 3.94 µM (inactive)
GI50 [12]: 25.8 µM (inactive)
GI50 [13]: 26.7 µM (inactive)
GI50 [14]: 16.6 µM (inactive)
GI50 [15]: > 100 µM (inactive)
GI50 [16]: 31.8 µM (inactive)

NC(=S)N/N=C/C(O[C@@H](/C=N/NC(N)=S)CO)n1cnc2c(N)ncnc21 (some centres not stated)
GI50 [1]: > 62.5 µM (inactive)
GI50 [2]: > 100 µM (inactive)
GI50 [3]: > 51.2 µM (inactive)
GI50 [4]: > 42.3 µM
GI50 [5]: > 85.5 µM (inactive)
GI50 [6]: 50.7 µM (inactive)
GI50 [7]: > 65.3 µM (inactive)
GI50 [8]: > 100 µM (inactive)
GI50 [9]: > 100 µM (inactive)
GI50 [10]: 44.6 µM (inactive)
GI50 [11]: > 52.4 µM (inactive)
GI50 [12]: > 100 µM (inactive)
GI50 [13]: > 100 µM (inactive)
GI50 [14]: 97.5 µM (inactive)
GI50 [15]: > 100 µM (inactive)
GI50 [16]: > 100 µM (inactive)
